In patent US20250000881A1, “TREATMENT OF TREATMENT RESISTANT […] PSILOCYBIN” (COMPASS […], priority 2021, published 2025):

Test system: adult subjects with TRD
Test: Phase 2b trial in TRD: Digit Symbol Substitution Test (DSST)
Format: in vivo, human
Settings: 25 mg vs 1 mg groups, week 3
Experimental: Other objectives were to evaluate the effects of psilocybin on quality of life and wellbeing, functioning and associated disability, cognitive function, and anxiety compared to 1 mg psilocybin on: • (a) Quality of life in subject EuroQoL (EQ)-5 dimension-3 level scale (EQ-5D-3L) score change from Baseline to week 3. This will also be assessed at week 12. This assessment was not mandatory. • (b) Quality of life in caregiver EQ-5D-3L score change from Baseline to week 3. This was assessed at week 12. • (c) Functioning and associated disability in the Sheehan Disability Scale (SDS) score change from Baseline to week 3. This was also assessed at week 12. • (d) Cognitive function as measured by the Digit Symbol Substitution Test (DSST) score change from baseline to week 3. This was assessed at day 1 and week 12. • (e) Level of anxiety as measured using the change in Generalised Anxiety Disorder 7 item Scale (GAD-7) total score change from baseline to week 3. This was assessed at week 12. • (f) Subject determined level of depression as measured using the change in Quick Inventory of Depressive Symptomatology Self-Rated (QIDS-SR-16) total score from Baseline to week 3. […] This was assessed at week 12. • (h) To evaluate the impact of different psilocybin doses on real life functional activity estimated from passive data streams collected on a mobile app on subjects' mobile phones. […]

CN(C)CCc1c[nH]c2cccc(OP(=O)(O)O)c12 [COMP360, psilocybin]
DSST least squares mean treatment difference: 1.32
